Data taken from publication PMC10413907 (Journal of Evidence-based Integrative Medicine, 2023).
Values joined by “and” are separate entries in the source; they are usually repeats but may differ in a detail not shown here. Equal values may be shown once. Read-outs that look alike come from different tables or passages of the source.

Columns and labels:
[1] = system: PBMCs (from healthy subjects); assay: MTT cell proliferation assay, PBMCs; type: cell-based, human
HaCaT cells = assay: MTT cell proliferation assay, HaCaT; type: cell-based, human; conditions: 48 h, median (range)
recombinant human CYP1A2 = molecular target: T1, recombinant human CYP1A2 (Homo sapiens, UniProt P05177); assay: P450-Glo bioluminescent CYP450 inhibition assay; type: in vitro ADME
T1 sequence (P05177 1-516): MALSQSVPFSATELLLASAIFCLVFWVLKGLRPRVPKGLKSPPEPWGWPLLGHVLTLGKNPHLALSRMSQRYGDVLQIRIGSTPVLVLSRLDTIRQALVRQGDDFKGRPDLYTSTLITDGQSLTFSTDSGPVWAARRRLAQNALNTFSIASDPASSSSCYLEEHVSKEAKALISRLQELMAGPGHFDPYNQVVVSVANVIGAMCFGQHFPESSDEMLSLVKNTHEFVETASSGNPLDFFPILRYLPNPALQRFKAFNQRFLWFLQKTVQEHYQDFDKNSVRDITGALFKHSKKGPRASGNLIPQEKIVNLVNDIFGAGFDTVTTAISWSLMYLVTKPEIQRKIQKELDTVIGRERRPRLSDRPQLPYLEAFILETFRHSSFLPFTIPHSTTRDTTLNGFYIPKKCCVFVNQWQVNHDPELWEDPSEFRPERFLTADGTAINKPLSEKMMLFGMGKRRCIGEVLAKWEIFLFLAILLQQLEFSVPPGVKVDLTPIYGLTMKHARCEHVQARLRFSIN

[2] = molecular target: recombinant human CYP2C19 (Homo sapiens, UniProt P33261); assay: P450-Glo bioluminescent CYP450 inhibition assay; type: in vitro ADME
Chain of recombinant human CYP2C19 (P33261 whole entry): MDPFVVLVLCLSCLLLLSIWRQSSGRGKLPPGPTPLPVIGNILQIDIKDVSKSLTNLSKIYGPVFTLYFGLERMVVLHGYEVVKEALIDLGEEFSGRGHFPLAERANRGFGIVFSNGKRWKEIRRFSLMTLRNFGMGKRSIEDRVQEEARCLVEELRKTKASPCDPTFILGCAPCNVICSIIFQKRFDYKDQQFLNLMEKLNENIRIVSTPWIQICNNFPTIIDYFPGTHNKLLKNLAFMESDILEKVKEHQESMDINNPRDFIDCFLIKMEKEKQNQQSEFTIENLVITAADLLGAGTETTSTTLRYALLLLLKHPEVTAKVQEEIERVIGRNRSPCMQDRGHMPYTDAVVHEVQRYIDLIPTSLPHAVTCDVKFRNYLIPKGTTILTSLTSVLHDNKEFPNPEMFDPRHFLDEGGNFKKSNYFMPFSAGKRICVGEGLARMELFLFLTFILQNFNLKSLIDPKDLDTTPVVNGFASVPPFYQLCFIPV

recombinant human CYP3A4 = recombinant human CYP3A4 (Homo sapiens, UniProt P08684); assay: P450-Glo bioluminescent CYP450 inhibition assay; type: in vitro ADME
Chain of recombinant human CYP3A4 (P08684 whole entry): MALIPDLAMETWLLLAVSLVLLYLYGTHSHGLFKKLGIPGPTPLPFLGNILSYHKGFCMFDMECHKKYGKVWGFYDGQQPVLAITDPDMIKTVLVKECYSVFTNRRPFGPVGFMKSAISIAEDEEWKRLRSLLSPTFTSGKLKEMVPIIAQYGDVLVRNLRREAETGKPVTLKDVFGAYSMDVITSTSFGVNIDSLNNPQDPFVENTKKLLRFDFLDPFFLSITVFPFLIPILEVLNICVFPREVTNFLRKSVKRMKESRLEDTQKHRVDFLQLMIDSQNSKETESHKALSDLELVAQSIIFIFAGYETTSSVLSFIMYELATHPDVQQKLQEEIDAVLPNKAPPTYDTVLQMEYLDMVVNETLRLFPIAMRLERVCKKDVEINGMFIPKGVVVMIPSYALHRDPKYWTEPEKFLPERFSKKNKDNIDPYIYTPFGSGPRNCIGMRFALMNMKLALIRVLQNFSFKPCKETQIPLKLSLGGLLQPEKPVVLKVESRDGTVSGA

IL-6 mRNA = assay: Pro-inflammatory cytokine mRNA expression; type: cell-based, human; conditions: PBMCs from psoriasis patients vs healthy subjects; 48 h; IC50
IL-23A mRNA = assay: Pro-inflammatory cytokine mRNA expression; type: cell-based, human; conditions: PBMCs from psoriasis patients vs healthy subjects, 48 h
IL-12p19 mRNA = assay: Pro-inflammatory cytokine mRNA expression; type: cell-based, human; conditions: PBMCs from psoriasis patients vs healthy subjects
[3] = system: PBMCs from psoriasis patients and healthy subjects; assay: Cell apoptosis/necrosis, FITC-Annexin V/PI flow cytometry, PBMCs; type: cell-based, human; conditions: 48 h exposure; for proportions of PBMCs with early apoptosis, psoriasis patients compared with healthy volunteers: both concentrations
recombinant human CYP2C9 = recombinant human CYP2C9 (Homo sapiens, UniProt P11712); assay: P450-Glo bioluminescent CYP450 inhibition assay
Chain of recombinant human CYP2C9 (P11712 whole entry): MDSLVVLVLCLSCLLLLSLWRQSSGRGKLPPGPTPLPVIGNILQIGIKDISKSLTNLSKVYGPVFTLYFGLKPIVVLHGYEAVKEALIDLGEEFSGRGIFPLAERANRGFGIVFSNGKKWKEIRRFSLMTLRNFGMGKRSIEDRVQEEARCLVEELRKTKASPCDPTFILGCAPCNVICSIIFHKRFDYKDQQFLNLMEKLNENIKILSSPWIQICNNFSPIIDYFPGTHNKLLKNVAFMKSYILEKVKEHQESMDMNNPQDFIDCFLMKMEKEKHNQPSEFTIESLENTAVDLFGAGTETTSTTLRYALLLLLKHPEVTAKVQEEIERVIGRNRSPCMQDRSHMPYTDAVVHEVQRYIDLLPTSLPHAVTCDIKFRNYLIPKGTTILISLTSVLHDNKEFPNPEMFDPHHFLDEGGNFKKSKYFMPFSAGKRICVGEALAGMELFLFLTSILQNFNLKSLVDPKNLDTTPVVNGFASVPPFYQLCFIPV

recombinant human CYP2D6 = recombinant human CYP2D6 (Homo sapiens, UniProt P10635); assay: P450-Glo bioluminescent CYP450 inhibition assay
Chain of recombinant human CYP2D6 (P10635 whole entry): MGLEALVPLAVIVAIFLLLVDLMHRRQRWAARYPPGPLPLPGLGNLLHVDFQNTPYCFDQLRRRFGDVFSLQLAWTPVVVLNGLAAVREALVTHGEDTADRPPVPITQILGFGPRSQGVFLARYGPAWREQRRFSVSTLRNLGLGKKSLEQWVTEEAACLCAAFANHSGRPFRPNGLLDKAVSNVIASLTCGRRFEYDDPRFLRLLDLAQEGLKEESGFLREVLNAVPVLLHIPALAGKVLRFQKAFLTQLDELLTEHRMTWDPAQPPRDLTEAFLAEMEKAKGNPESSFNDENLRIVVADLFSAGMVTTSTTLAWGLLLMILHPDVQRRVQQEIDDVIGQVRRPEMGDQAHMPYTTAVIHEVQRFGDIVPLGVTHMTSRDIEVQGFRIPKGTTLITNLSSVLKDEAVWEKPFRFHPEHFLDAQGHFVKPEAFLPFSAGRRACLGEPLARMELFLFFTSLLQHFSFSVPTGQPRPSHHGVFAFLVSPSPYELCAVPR

TNF-α mRNA = assay: Pro-inflammatory cytokine mRNA expression; type: cell-based, human; conditions: PBMCs from psoriasis patients vs healthy subjects; 48 h; IC25
[4] = system: PBMCs from psoriasis patients and healthy subjects; assay: Cell cycle analysis by flow cytometry; type: cell-based, human; conditions: PBMCs from patients with psoriasis; 24 h; both concentrations
[5] = read-out: CYP1A2 IC50, median (range), unit of the reference inhibitor
[6] = read-out: CYP1A2 inhibitory potency class, class by IC50
[7] = read-out: CYP2C19 IC50, median (range), unit of the reference inhibitor
[8] = read-out: CYP2C19 inhibitory potency class, class by IC50
[9] = read-out: CYP3A4 IC50, median (range), unit of the reference inhibitor
[10] = read-out: CYP3A4 inhibitory potency class, class by IC50
[11] = read-out: CYP2C9 IC50, median (range), unit of the reference inhibitor
[12] = read-out: CYP2C9 inhibitory potency class, class by IC50
[13] = read-out: CYP2D6 IC50, median (range), unit of the reference inhibitor
[14] = read-out: CYP2D6 inhibitory potency class, class by IC50

Row | IC50 (recombinant human CYP1A2; [5]) | IC50 (recombinant human CYP1A2; [6]) | IC50 [2, 7] | IC50 [2, 8] | IC50 (recombinant human CYP3A4; [9]) | IC50 (recombinant human CYP3A4; [10]) | IC50 (recombinant human CYP2C9; [11]) | IC50 (recombinant human CYP2C9; [12]) | CYP2D6 inhibitory potency class (recombinant human CYP2D6; class by IC50) | IC50 (recombinant human CYP2D6; [13]) | IC50 (recombinant human CYP2D6; [14]) | Compound | PBMCs IC25 ([1]; 48 h, median (range)) | HaCaT IC25 (HaCaT cells; MTT) | IL-6 mRNA expression (IL-6 mRNA) | proportions of PBMCs with early apoptosis, psoriasis patients compared with healthy volunteers [3] | other results
1 | 118 µM | > 50 µM | 80.4 µM | > 50 µM | 865 µM | > 50 µM | 87.5 µM | > 50 µM | moderately inhibited | 17.8 µM | 10 to 50 µM | CCOC(=O)C=Cc1ccc(OC)cc1 [EPMC, ethyl-p-methoxycinnamate] | 254 (234-258) μM | 432 (395-458) μM | reduced | significantly lower | PBMCs IC50 ([1]; 48 h, median (range)): 63.09 µg/mL; IC50 ([1]; read-out: PBMCs IC50, 48 h, median (range)): 306 µM and 305 µM; HaCaT IC50 (HaCaT cells; MTT): 114.25 µg/mL; IC50 (HaCaT cells; read-out: HaCaT IC50, MTT): 554 µM; IL-23A mRNA expression (IL-23A mRNA; IC50): reduced; IL-12p19 mRNA expression (IL-12p19 mRNA; 24 h, only at IC50): downregulating
2 | 5250 µM | > 50 µM | 1450 µM | > 50 µM | 1150 µM | > 50 µM | 469 µM | > 50 µM | moderately inhibited | 11.4 µM | 10 to 50 µM | COc1cc(/C=C/C(=O)O)ccc1O [Ferulic acid, ferulic acid] | – | – | – | – | –
3 | – | – | – | – | – | – | – | – | – | – | – | CCC/C=C1\OC(=O)C2=C1CCC=C2 [Ligustilide, ligustilide] | 105 (101-106) μM | 151 (138-155) μM | downregulating | significantly lower | IC50 (HaCaT cells; Homo sapiens, HaCaT, read-out: HaCaT IC50, MTT, 48 h): 188 µM and 35.8 µg/mL; IC50 (recombinant human CYP1A2): 10 to 50 µM; CYP1A2 inhibitory potency class (recombinant human CYP1A2; class by IC50): moderately inhibited; IC50 ([2]; CYP2C19 IC50, median (range), unit of the reference inhibitor): 89.2 µM; IC50 ([2]; CYP2C19 inhibitory potency class, class by IC50): > 50 µM; IC50 (recombinant human CYP3A4; CYP3A4 IC50, median (range), unit of the reference inhibitor): 39.8 µM; IC50 (recombinant human CYP3A4; CYP3A4 inhibitory potency class, class by IC50): 10 to 50 µM; CYP3A4 inhibitory potency class (recombinant human CYP3A4; class by IC50): moderately inhibited; IL-23A mRNA expression (IL-23A mRNA; IC25): downregulated; TNF-α mRNA expression (TNF-α mRNA): downregulated; IL-12p19 mRNA expression (IL-12p19 mRNA; 48 h, IC25): downregulated; phase of cell cycle arrest [4]: S phase; proportions of living PBMCs from psoriasis patients compared with PBMCs from healthy volunteers [3]: significantly higher; IC50 (recombinant human CYP2C9; CYP2C9 IC50, median (range), unit of the reference inhibitor): 114 µM; IC50 (recombinant human CYP2C9; CYP2C9 inhibitory potency class, class by IC50): > 50 µM; IC50 (recombinant human CYP2D6; CYP2D6 IC50, median (range), unit of the reference inhibitor): 218 µM; IC50 (recombinant human CYP2D6; CYP2D6 inhibitory potency class, class by IC50): > 50 µM
